Experimental data taken from patent US10370728B2, “Antibiotic susceptibility testing using probes for preribosomal RNA” (THE REGENTS OF THE UNIVERSITY OF CALIFORNIA, priority 2012, dated 2019).
“Also recorded” adds a separate entry of the source.

Key:
[1] = tested on: E. coli clinical urine isolate EC103; test: Electrochemical sensor assay of pre-rRNA and mature rRNA in E. coli EC103 cultures spiked with antibiotics; format: cell-based; details: EC103 culture in MH broth, antibiotic added at 150 or 210 min; 25 μg/ml Rifampicin, 25 μg/ml Chloramphenicol, 4 μg/ml Ciprofloxacin, 16 μg/ml Gentamicin; vs culture without antibiotic
Method: Bacterial Strains and Media. E. coli clinical urine isolate EC103 (Amp^R) was obtained from the University of California-Los Angeles (UCLA) Clinical Microbiology Laboratory with approval from the UCLA and Veterans' Affair Institutional Review Boards and appropriate Health Insurance Portability and Accountability Act exemptions. EC103 was inoculated into Mueller Hinton (MH) broth with 12% glycerol (Becton Dickinson, Sparks, Md.) and stored at -80° C. EC103 was cultured overnight in MH broth with 64 μ[…] (Sigma, St. Louis, Mo.). EC103 was plated on Luria Broth (LB) agar (MOBIO Laboratories Inc., Carlsbad, Calif.) for counting colony-forming units (CFUs). EC103 Growth and Target Copy Number Experiments. Overnight cultures of EC103 were prepared by adding 5 μl of EC103 glycerol stock to 5 ml of MH broth with ampicillin and incubated at 37° C. overnight with shaking. The following day, the EC103 culture was diluted by adding 10 μl of the overnight culture to 100 ml of prewarmed and […] MH broth in a 500 ml flask, followed by incubation at 37° C. with shaking at 250 rpm. Every 30 min, including at 0 min and the overnight culture itself, a 1 ml sample was taken for OD600 measurement and 10-fold serial dilutions (100 μl into 900 μl) were performed in room temperature MH broth. Cell density was determined by plating serial dilutions in triplicate. At each time point, culture samples were transferred to an ice water bath or centrifuged immediately at 4° C. for 3 min at 14,000 rpm. The supernatants were then removed by aspiration, flash frozen in a dry ice-ethanol bath and stored at -80° C. […] Electrochemical detection. […] For thiolated capture probes, disposable 16-sensor bare Au electrode arrays were obtained from GeneFluidics ([…], Calif.). Each sensor of the array consisted of a 2.5 mm diameter central working electrode, surrounded by an Au counter electrode and an Au pseudo-reference electrode. The sensor chip was driven by a computer-controlled Helios multichannel electrochemical workstation (GeneFluidics, […], Calif.). Washing steps were carried out after each application of reagents by applying a stream of deionized H2O to the sensor surface for approximately 2-3 sec followed by 5 sec of drying under a stream of nitrogen. Prior to addition of the first reagent, the bare gold chips were dried as described above. To functionalize the working sensor surface, a fresh mixture of 0.05 μM thiolated capture probe and 300 μM 1,6-hexanedithiol (96%, Sigma, St. Louis, Mo.) was prepared in 10 mM Tris-HCl, 1 mM EDTA and 0.3 M NaCl (pH 8.0) and allowed to stand at room temperature for 10 min. […] This was then combined with the CFU/ml values determined by plating for each time point to generate target molecule number per CFU measurements.

[2] = tested on: susceptible strain of E. coli; test: Response of pre-rRNA to cefazolin in log phase culture; format: cell-based; details: log phase of growth, within 30 min after addition

Molecule | effect on mature rRNA level [1] | effect on pre-rRNA level [1] | drop in the amount of pre-rRNA compared to a culture without the antibiotic [2]
Gentamicin | decrease in the pool of mature rRNA; also recorded: selective decrease in mature rRNA | without affecting the level of pre-rRNA | 
Cc1nnc(SCC2=C(C(=O)O)N3C(=O)[C@@H](NC(=O)Cn4cnnn4)[C@H]3SC2)s1 [cefazolin] |  |  | one-log drop
O=C(N[C@H](CO)[C@H](O)c1ccc([N+](=O)[O-])cc1)C(Cl)Cl [chloramphenicol, Chloramphenicol] | decrease of mature rRNA; also recorded: selective decrease in mature rRNA | selective increase in pre-rRNA | 
